Patent publication US8501238B2, “Anti-infective agents and uses thereof” (priority 2007, dated 2013)
pEC50, pIC50: −log10 of the molar value.

Key:
[1] = molecular target: T1, HCV polymerase 1B (Δ21 NS5B) (Hepatitis C virus genotype 1b, UniProt P26663); test: biochemical
T1 construct: 20 to 50nM Δ21 NS5B
Method: (§1) Either two-fold serial dilutions (fractional inhibition assay) or a narrower range of dilutions spanning the IC50 of the inhibitor (tight binding assay) of the inhibitors were incubated with 20mM Tris-Cl pH 7.4, 2 mM MnCl2, 1 mM dithiothreitol, 1 mM ethylene diamine tetraacetic acid (EDTA), 60 to 125μM GTP and 20 to 50nM Δ21 NS5B (HCV Strain 1B (BK, Genbank accession number M58335, or H77, Genbank accession number AF011751)) for 15min at room temperature. The reaction was initiated by the addition of 20μM CTP, 20μM ATP, 1μM ^3H-UTP (10mCi/umol), 5nM template RNA and 0.1 U/μl RNase inhibitor (RNasin, Promega), and allowed to proceed for 2 to 4h at room temperature. Reaction volume was 50μl. The reaction was terminated by the addition of 1 volume of 4mM spermine in 10mM Tris-Cl pH 8.0, 1mM EDTA. After incubation for at least 15 min at room temperature, the precipitated RNA was captured by filtering through a GF/B filter (Millipore) in a 96 well format. The filter plate was washed three times with 200μl each of 2mM spermine, 10mM Tris-Cl pH 8.0, lmM EDTA, and 2 times with ethanol. After air-drying, 30μl of Microscint 20 scintillation cocktail (Packard) was added to each well, and the retained cpm were determined by scintillation counting. […] Retained cpm were plotted vs. inhibitor concentration and fit to equation 1 using non-linear regression (ref. 1) to obtain the IC50 values: Retained cpm=A[sqrt{(IC50+It−Et)^2+4*IC50*Et}−([…])]
Ref. Morrison, J. F. and S. R. Stone. 1985. Approaches to the study and analysis of the inhibition of enzymes by slow- and tight-binding inhibitors. Comments Mol. Cell. Biophys. 2: 347-368.
(§2) The sequence of the template RNA used was: 5′-[…]-3′

[2] = test system: genotype 1b-Con1 subgenomic replicon cell line; test: microbe, parasite or virus in culture; assay type: cell-based, HCV; settings: Hepatitis C virus, 72 h, read-out: EC50 1b
[3] = test system: genotype 1a-H77 subgenomic replicon cell line; test: microbe, parasite or virus in culture; assay type: cell-based, HCV; settings: Hepatitis C virus, 72 h, read-out: EC50 1a
[4] = molecular target: T2, HCV polymerase 1A (Δ21 NS5B) (Hepatitis C virus genotype 1a, UniProt P27958); test: HCV Polymerase Inhibition Assay (1a); assay type: biochemical
T2 construct: 20 to 50nM Δ21 NS5B
Method: as §1, with “The” for “Either two-fold serial dilutions (fractional inhibition assay) or a narrower range of dilutions spanning the IC50 of the inhibitor (tight binding assay) of the inhibitors were incubated with 20mM Tris-Cl pH 7.4, 2 mM MnCl2, 1 mM dithiothreitol, 1 mM ethylene diamine tetraacetic acid (EDTA), 60 to 125μM GTP and 20 to 50nM Δ21 NS5B (HCV Strain 1B (BK, Genbank accession number M58335, or H77, Genbank accession number AF011751)) for 15min at room temperature. The”
Ref. Morrison, J. F. and S. R. Stone. […] Approaches to the study and analysis of the inhibition of enzymes by slow- and tight-binding inhibitors. Comments Mol. Cell. Biophys.
as §2

T2 sequence (P27958 2421-2990, stated change not applied): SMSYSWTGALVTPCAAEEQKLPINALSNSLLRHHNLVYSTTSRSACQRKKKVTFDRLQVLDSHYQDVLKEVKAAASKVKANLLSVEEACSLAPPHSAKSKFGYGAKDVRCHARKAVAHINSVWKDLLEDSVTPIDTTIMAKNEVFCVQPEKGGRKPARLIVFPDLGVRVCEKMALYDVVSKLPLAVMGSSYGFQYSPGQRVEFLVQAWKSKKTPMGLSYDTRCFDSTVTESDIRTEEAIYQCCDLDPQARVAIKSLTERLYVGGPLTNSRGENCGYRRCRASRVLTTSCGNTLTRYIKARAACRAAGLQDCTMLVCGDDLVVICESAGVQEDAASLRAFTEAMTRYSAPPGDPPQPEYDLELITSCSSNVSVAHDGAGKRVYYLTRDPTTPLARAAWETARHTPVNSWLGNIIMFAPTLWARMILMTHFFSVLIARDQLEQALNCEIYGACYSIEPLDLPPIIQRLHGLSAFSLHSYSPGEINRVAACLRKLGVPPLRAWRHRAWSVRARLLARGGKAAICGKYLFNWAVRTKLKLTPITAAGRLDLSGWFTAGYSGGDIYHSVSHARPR
T1 sequence (P26663 2420-2989, stated change not applied): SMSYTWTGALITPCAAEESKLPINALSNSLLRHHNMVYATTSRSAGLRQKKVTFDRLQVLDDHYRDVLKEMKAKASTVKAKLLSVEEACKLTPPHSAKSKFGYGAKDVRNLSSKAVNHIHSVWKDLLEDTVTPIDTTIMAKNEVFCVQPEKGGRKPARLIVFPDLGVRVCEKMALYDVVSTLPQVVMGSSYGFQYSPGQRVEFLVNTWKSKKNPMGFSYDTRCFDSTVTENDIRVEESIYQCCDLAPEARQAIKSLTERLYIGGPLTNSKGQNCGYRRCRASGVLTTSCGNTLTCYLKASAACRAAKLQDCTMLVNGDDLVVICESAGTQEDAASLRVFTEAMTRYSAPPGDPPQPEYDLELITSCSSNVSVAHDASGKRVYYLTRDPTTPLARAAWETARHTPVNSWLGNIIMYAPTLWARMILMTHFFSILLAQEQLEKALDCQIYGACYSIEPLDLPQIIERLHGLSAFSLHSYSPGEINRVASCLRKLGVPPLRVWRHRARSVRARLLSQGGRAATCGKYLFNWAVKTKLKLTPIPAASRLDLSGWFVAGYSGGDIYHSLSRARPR

SMILES	pIC50 [1]	pEC50 [2]	pEC50 [3]	pIC50 [4]
COc1c(-c2ccc3c(c2)CC[C@@]3(F)CNS(C)(=O)=O)cc(-n2ccc(=O)[nH]c2=O)cc1C(C)(C)C [IB-L0-2.20, (S)-N-((5-(3-tert-butyl-5-(2,4-dioxo-3,4-dihydropyrimidin-1(2H)-yl)-2-methoxyphenyl)-1-fluoro-2,3-dihydro-1H-inden-1-yl)methyl)methanesulfonamide]	7.00 to 8.00	7.00 to 8.00	6.00 to 7.00	> 8.00
COc1c(-c2ccc3nc(NS(C)(=O)=O)cnc3c2)cc(-n2ccc(=O)[nH]c2=O)cc1C(C)(C)C [IB-L0-2.26, N-(6-(3-tert-butyl-5-(2,4-dioxo-3,4-dihydropyrimidin-1(2H)-yl)-2-methoxyphenyl)quinoxalin-2-yl)methanesulfonamide]	7.00 to 8.00	6.00 to 7.00	< 6.00	7.00 to 8.00
COc1c(-c2ccc3nc(N)sc3c2)cc(-n2ccc(=O)[nH]c2=O)cc1C(C)(C)C [IB-L0-2.27, 1-(3-(2-aminobenzo[d]thiazol-6-yl)-5-tert-butyl-4-methoxy-phenyl)pyrimidine-2,4(1H,3H)-dione]	7.00 to 8.00	7.00 to 8.00	6.00 to 7.00	7.00 to 8.00
COc1c(-c2ccc3nc(NS(C)(=O)=O)sc3c2)cc(-n2ccc(=O)[nH]c2=O)cc1C(C)(C)C [IB-L0-2.28, N-(6-(3-tert-butyl-5-(2,4-dioxo-3,4-dihydropyrimidin-1(2H)-yl)-2-methoxyphenyl)benzo[d]thiazol-2-yl)methanesulfonamide]	7.00 to 8.00	6.00 to 7.00	< 6.00	7.00 to 8.00
COc1c(-c2ccc3c(c2)CNC3=O)cc(-n2ccc(=O)[nH]c2=O)cc1C(C)(C)C [IB-L0-2.30, 1-(3-tert-butyl-4-methoxy-5-(1-oxoisoindolin-5-yl)phenyl)-pyrimidine-2,4(1H,3H)-dione]	7.00 to 8.00	7.00 to 8.00	6.00 to 7.00	7.00 to 8.00
COc1c(-c2ccc3c(c2)CCN3S(C)(=O)=O)cc(-n2ccc(=O)[nH]c2=O)cc1C(C)(C)C [IB-L0-2.32, 1-(3-tert-butyl-4-methoxy-5-(1-(methylsulfonyl)indolin-5-yl)phenyl)pyrimidine-2,4(1H,3H)-dione]	7.00 to 8.00	7.00 to 8.00	6.00 to 7.00	7.00 to 8.00
COc1c(-c2ccc3ncsc3c2)cc(-n2ccc(=O)[nH]c2=O)cc1C(C)(C)C [IB-L0-2.33, 1-(3-(benzo[d]thiazol-6-yl)-5-tert-butyl-4-methoxyphenyl)pyrimidine-2,4(1H,3H)-dione]	7.00 to 8.00	6.00 to 7.00	6.00 to 7.00	7.00 to 8.00
COc1c(-c2ccc3nc(Cl)sc3c2)cc(-n2ccc(=O)[nH]c2=O)cc1C(C)(C)C [IB-L0-2.38, 1-(3-tert-butyl-5-(2-chlorobenzo[d]thiazol-6-yl)-4-methoxyphenyl)pyrimidine-2,4(1H,3H)-dione]	7.00 to 8.00	< 6.00	< 6.00	6.00 to 7.00
COc1c(-c2ccc3c(c2)CC=C3C(C)(C)NS(C)(=O)=O)cc(-n2ccc(=O)[nH]c2=O)cc1C(C)(C)C [IB-L0-2.41, N-(2-(6-(3-tert-butyl-5-(2,4-dioxo-3,4-dihydropyrimidin-1(2H)-yl)-2-methoxyphenyl)-1H-inden-3-yl)propan-2-yl)methanesulfonamide]	6.00 to 7.00	6.00 to 7.00	6.00 to 7.00	6.00 to 7.00
COc1c(-c2ccc3c(C)coc3c2)cc(-n2ccc(=O)[nH]c2=O)cc1C(C)(C)C [IB-L0-2.42, 1-(3-tert-butyl-4-methoxy-5-(3-methylbenzofuran-6-yl)phenyl)-pyrimidine-2,4(1H,3H)-dione]	6.00 to 7.00	6.00 to 7.00	6.00 to 7.00	6.00 to 7.00
COc1c(-c2ccc3c(c2)CCN(NS(C)(=O)=O)C3)cc(-n2ccc(=O)[nH]c2=O)cc1C(C)(C)C [IB-L0-2.43, N-(6-(3-tert-butyl-5-(2,4-dioxo-3,4-dihydropyrimidin-1(2H)-yl)-2-methoxyphenyl)-3,4-dihydroisoquinolin-2(1H)-yl)methanesulfonamide]	6.00 to 7.00	6.00 to 7.00	< 6.00	6.00 to 7.00
COc1c(-c2ccc3c(CNS(C)(=O)=O)noc3c2)cc(-n2ccc(=O)[nH]c2=O)cc1C(C)(C)C [IB-L0-2.45]	6.00 to 7.00	6.00 to 7.00	< 6.00	6.00 to 7.00
COc1c(-c2ccc3c(c2)/C(=N/NS(C)(=O)=O)CC3)cc(-n2ccc(=O)[nH]c2=O)cc1-c1cccs1 [IB-L0-2.51, (E)-N′-(6-(5-(2,4-dioxo-3,4-dihydropyrimidin-1(2H)-yl)-2-methoxy-3-(thiophen-2-yl)phenyl)-2,3-dihydro-1H-inden-1-ylidene)methanesulfonohydrazide]	7.00 to 8.00	> 8.00	7.00 to 8.00	> 8.00
CCC(C)(C)c1cc(-n2ccc(=O)[nH]c2=O)cc(-c2ccc3cc(NS(C)(=O)=O)ccc3c2)c1OC [IB-L0-2.52, N-(6-(5-(2,4-dioxo-3,4-dihydropyrimidin-1(2H)-yl)-2-methoxy-3-tert-pentylphenyl)naphthalen-2-yl)methanesulfonamide]	7.00 to 8.00	> 8.00	7.00 to 8.00	> 8.00
COc1c(-c2ccsc2)cc(-n2ccc(=O)[nH]c2=O)cc1-c1ccc2cc(NS(C)(=O)=O)ccc2c1 [IB-L0-2.53, N-(6-(5-(2,4-dioxo-3,4-dihydropyrimidin-1(2H)-yl)-2-methoxy-3-(thiophen-3-yl)phenyl)naphthalen-2-yl)methanesulfonamide]	7.00 to 8.00	7.00 to 8.00	7.00 to 8.00	> 8.00
COc1c(-c2ccc3c(c2)/C(=N/NS(C)(=O)=O)CC3)cc(-n2ccc(=O)[nH]c2=O)cc1-c1ccco1 [IB-L0-2.55, (E)-N′-(6-(5-(2,4-dioxo-3,4-dihydropyrimidin-1(2H)-yl)-3-(furan-2-yl)-2-methoxyphenyl)-2,3-dihydro-1H-inden-1-ylidene)methanesulfonohydrazide]	7.00 to 8.00	> 8.00	7.00 to 8.00	> 8.00
COc1c(-c2ccc3cc(NS(C)(=O)=O)ccc3c2)cc(-n2ccc(=O)[nH]c2=O)cc1C(F)(F)F [IB-L0-2.56, N-(6-(5-(2,4-dioxo-3,4-dihydropyrimidin-1(2H)-yl)-2-methoxy-3-(trifluoromethyl)phenyl)naphthalen-2-yl)methanesulfonamide]	7.00 to 8.00	> 8.00	6.00 to 7.00	> 8.00
COc1c(I)cc(-n2ccc(=O)[nH]c2=O)cc1-c1ccc2cc(NS(C)(=O)=O)ccc2c1 [IB-L0-2.57, N-(6-(5-(2,4-dioxo-3,4-dihydropyrimidin-1(2H)-yl)-3-iodo-2-methoxyphenyl)naphthalen-2-yl)methanesulfonamide]	7.00 to 8.00	7.00 to 8.00	6.00 to 7.00	> 8.00
COc1c(-c2ccc3cc(NS(C)(=O)=O)ccc3c2)cc(-n2ccc(=O)[nH]c2=O)cc1-c1ccco1 [IB-L0-2.59, N-(6-(5-(2,4-dioxo-3,4-dihydropyrimidin-1(2H)-yl)-3-(furan-2-yl)-2-methoxyphenyl)naphthalen-2-yl)methanesulfonamide]	7.00 to 8.00	7.00 to 8.00	6.00 to 7.00	> 8.00
COc1c(-c2ccc3cc(NS(C)(=O)=O)ccc3c2)cc(-n2ccc(=O)[nH]c2=O)cc1-c1cccs1 [IB-L0-2.61, N-(6-(5-(2,4-dioxo-3,4-dihydropyrimidin-1(2H)-yl)-2-methoxy-3-(thiophen-2-yl)phenyl)naphthalen-2-yl)methanesulfonamide]	7.00 to 8.00	7.00 to 8.00	6.00 to 7.00	> 8.00
